Laboratory results: ChEMBL document CHEMBL1153286, “Synthesis and biological evaluation of sulfonylurea and thiourea derivatives substituted with benzenesulfonamide groups as potential hypoglycemic agents” (Bioorg Med Chem Lett, 2009)
Calls of active or inactive are those of the source. No cut-off for these calls is given here.

What was measured:
[1] = Effect on insulin release in rat pancreatic cells at 1 umol/L after 6 hrs by radioimmunoassay; format: functional
[2] = Effect on insulin release in rat pancreatic cells at 10 umol/L after 6 hrs by radioimmunoassay; format: functional
[3] = Effect on insulin release in rat pancreatic cells at 100 umol/L after 6 hrs by radioimmunoassay; format: functional
[4] = Increase in insulin release in rat pancreatic cells at 100 umol/L after 6 hrs by radioimmunoassay relative to basal level; format: functional
Adipocyte [5] = assay: Effect on 2-deoxy-D-[1-3H]glucose transport in Sprague-Dawley rat adipocytes at 1 uM in absence of insulin by liquid scintillation counting; format: functional
Adipocyte [6] = assay: Effect on 2-deoxy-D-[1-3H]glucose transport in Sprague-Dawley rat adipocytes at 1 uM in presence of insulin by liquid scintillation counting; format: functional
Adipocyte [7] = assay: Effect on 2-deoxy-D-[1-3H]glucose transport in Sprague-Dawley rat adipocytes at 10 uM in absence of insulin by liquid scintillation counting; format: functional
Adipocyte [8] = assay: Effect on 2-deoxy-D-[1-3H]glucose transport in Sprague-Dawley rat adipocytes at 10 uM in presence of insulin by liquid scintillation counting; format: functional
Adipocyte [9] = assay: Effect on 2-deoxy-D-[1-3H]glucose transport in Sprague-Dawley rat adipocytes at 100 uM in absence of insulin by liquid scintillation counting; format: functional
Adipocyte [10] = assay: Effect on 2-deoxy-D-[1-3H]glucose transport in Sprague-Dawley rat adipocytes at 100 uM in presence of insulin by liquid scintillation counting; format: functional
Adipocyte [11] = assay: Increase in glucose absorption in Sprague-Dawley rat adipocytes at 100 uM by liquid scintillation counting relative to basal level; format: functional
Mus musculus [12] = assay: Reduction of plasma glucose level in fasted C57BL/6J mouse at 20 mg/kg, po administered daily for 3 days measured on day 5 after 6 hrs by glucose oxidase trinder method; format: functional; set-up: scale not given: the % may be the effect or the level left
Mus musculus [13] = assay: Reduction of plasma glucose level in fasted C57BL/6J mouse at 7 mg/kg, po administered daily for 3 days measured on day 5 by glucose oxidase trinder method; format: functional, organism-based; set-up: dose 7 mg/kg
Mus musculus [14] = assay: Reduction of plasma glucose level in fasted C57BL/6J mouse at 2.5 mg/kg, po administered daily for 3 days measured on day 5 by glucose oxidase trinder method; format: functional, organism-based; set-up: dose 2.5 mg/kg
[15] = Antiplatelet activity in human platelets assessed as inhibition of arachidonic acid-induced platelet aggregation; format: functional, cell-based
[16] = Antiplatelet activity in human platelets assessed as inhibition of ADP-induced platelet aggregation; format: functional, cell-based
Mus musculus [17] = assay: Protection against collagen-epinephrine-induced mortality in Chinese Kunming cerebral thrombosis mouse model assessed as survival rate at 10 mg/kg, po administered once daily for 7 days measured on day 7 within 15 mins of collagen-epinephrine challenge; format: functional
Mus musculus [18] = assay: Protection against collagen-epinephrine-induced mortality in Chinese Kunming cerebral thrombosis mouse model assessed as survival rate at 20 mg/kg, po administered once daily for 7 days measured on day 7 within 15 mins of collagen-epinephrine challenge; format: functional
Mus musculus [19] = assay: Protection against collagen-epinephrine-induced mortality in Chinese Kunming cerebral thrombosis mouse model assessed as survival rate at 40 mg/kg, po administered once daily for 7 days measured on day 7 within 15 mins of collagen-epinephrine challenge; format: functional
[20] = Half life in rat at 2.5 mg/kg, iv; format: ADME, organism-based; set-up: dose 2.5 mg/kg, route intravenous; conditions: in vivo
[21] = Half life in rat at 5 mg/kg, po; format: ADME, organism-based; set-up: dose 5 mg/kg, route oral; conditions: in vivo
[22] = Volume of distribution in rat at 2.5 mg/kg, iv or 5 mg/kg, po; format: ADME, organism-based; conditions: in vivo
[23] = Clearance in rat at 2.5 mg/kg, iv or 5 mg/kg, po; format: ADME, organism-based; conditions: in vivo
[24] = Tmax in rat at 2.5 mg/kg, iv or 5 mg/kg, po; format: ADME, organism-based; conditions: in vivo
[25] = Cmax in rat at 2.5 mg/kg, iv or 5 mg/kg, po; format: ADME, organism-based; conditions: in vivo
Rattus norvegicus = assay: AUC in rat at 5 mg/kg, po; format: ADME, organism-based, Plasma; set-up: dose 5 mg/kg, route oral; conditions: in vivo
[26] = Oral bioavailability in rat at 5 mg/kg, po; format: ADME, organism-based; conditions: in vivo

Question: For `CC1CCC(NC(=O)NS(=O)(=O)c2ccc(CCNS(=O)(=O)c3ccc(Br)cc3)cc2)CC1` (configuration not stated), which Activity [1] is on record?
Answer: 40.79 uIU/ml

Question: What about the Activity [2] of the same molecule?
Answer: 65.21 uIU/ml

Question: And the Activity [3]?
Answer: 86.08 uIU/ml

Question: And the “fold change (FC)” value [4]?
Answer: 3.64

Question: And the Activity (Adipocyte [5])?
Answer: 4871.74 disintegrations/minute

Question: And the Activity (Adipocyte [6])?
Answer: 5996.43 disintegrations/minute

Question: What about the Activity (Adipocyte [7]) of the same molecule?
Answer: 6512.65 disintegrations/minute

Question: What about the Activity (Adipocyte [8]) of the same molecule?
Answer: 7979.94 disintegrations/minute

Question: What about the Activity (Adipocyte [9]) of the same molecule?
Answer: 7674.84 disintegrations/minute

Question: And the Activity (Adipocyte [10])?
Answer: 8486.79 disintegrations/minute

Question: What about the “fold change (FC)” value (Adipocyte [11]) of the same molecule?
Answer: 1.73

Question: And the Activity (Mus musculus [12])?
Answer: 50%

Question: And the Activity (Mus musculus [13])?
Answer: Active

Question: What about the Activity (Mus musculus [14]) of the same molecule?
Answer: Active

Question: And the IC50 [15]?
Answer: 210 nM

Question: And the IC50 [16]?
Answer: 3000 nM

Question: And the survival at 10 mg/kg (Mus musculus [17])?
Answer: 27.3%

Question: And the survival at 20 mg/kg (Mus musculus [18])?
Answer: 45.5%

Question: What about the survival at 40 mg/kg (Mus musculus [19]) of the same molecule?
Answer: 72.7%

Question: What about the half-life [20] of the same molecule?
Answer: 1.91 h

Question: What about the half-life [21] of the same molecule?
Answer: 1.77 h

Question: And the Vd [22]?
Answer: 0.78 L/kg

Question: What about the clearance [23] of the same molecule?
Answer: 6 mL/min

Question: And the Tmax [24]?
Answer: 0.83 h

Question: What about the Cmax [25] of the same molecule?
Answer: 3330 ng/mL

Question: What about the AUC (Rattus norvegicus) of the same molecule?
Answer: 10000 ng·h/mL

Question: What about the bioavailability [26] of the same molecule?
Answer: 52.7%
